Data reported in PMC9901219 (European Journal of Medicinal Chemistry, 2023).

Experiments:
SARS-CoV-2 3CLpro [1] = target: T1, SARS-CoV-2 3CLpro (Severe acute respiratory syndrome coronavirus 2, UniProt P0DTD1); assay: biochemical
Human Calpain 1 = target: T2, Human Calpain 1 (Homo sapiens, UniProt P07384); assay: Calpain assay; assay type: biochemical
T2 sequence (P07384 1-714): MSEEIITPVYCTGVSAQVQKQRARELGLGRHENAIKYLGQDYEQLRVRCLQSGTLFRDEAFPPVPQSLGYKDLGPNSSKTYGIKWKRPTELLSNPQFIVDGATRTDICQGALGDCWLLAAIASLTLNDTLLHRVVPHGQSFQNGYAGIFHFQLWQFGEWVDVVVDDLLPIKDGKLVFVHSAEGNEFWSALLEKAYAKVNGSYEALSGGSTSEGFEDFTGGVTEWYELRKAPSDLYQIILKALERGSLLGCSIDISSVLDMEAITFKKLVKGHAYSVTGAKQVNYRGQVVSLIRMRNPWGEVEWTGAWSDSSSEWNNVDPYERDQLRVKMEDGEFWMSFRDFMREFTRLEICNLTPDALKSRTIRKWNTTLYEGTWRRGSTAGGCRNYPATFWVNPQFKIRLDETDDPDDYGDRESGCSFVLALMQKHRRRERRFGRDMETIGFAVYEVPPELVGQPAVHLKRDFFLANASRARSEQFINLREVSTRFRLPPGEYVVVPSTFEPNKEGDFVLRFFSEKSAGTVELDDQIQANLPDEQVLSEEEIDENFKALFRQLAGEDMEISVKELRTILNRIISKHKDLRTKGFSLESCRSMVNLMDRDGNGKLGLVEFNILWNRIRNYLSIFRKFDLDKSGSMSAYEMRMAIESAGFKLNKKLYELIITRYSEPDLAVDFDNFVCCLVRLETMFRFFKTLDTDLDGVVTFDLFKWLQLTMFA
T2 sequence (P04632 1-268 partner): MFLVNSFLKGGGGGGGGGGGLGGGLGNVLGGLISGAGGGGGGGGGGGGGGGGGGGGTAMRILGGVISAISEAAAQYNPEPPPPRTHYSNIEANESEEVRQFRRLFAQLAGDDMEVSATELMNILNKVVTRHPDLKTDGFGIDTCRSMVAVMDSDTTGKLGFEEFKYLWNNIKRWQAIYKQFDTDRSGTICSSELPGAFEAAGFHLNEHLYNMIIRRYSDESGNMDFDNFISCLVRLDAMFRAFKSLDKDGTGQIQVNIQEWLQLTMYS

Cathepsin L = Cathepsin L (Homo sapiens, UniProt P07711); assay type: biochemical; conditions: calpain 1 and cathepsin L versus SARS-CoV-2 3CLpro
SARS-CoV-2 3CLpro [2] = target: T1, SARS-CoV-2 3CLpro; assay type: binding
SARS-CoV-2 3CLpro [3] = target: T1, SARS-CoV-2 3CLpro; assay type: biochemical
[4] = Stability of compound in enzymatic assay buffer with GSH; assay type: physicochemical

Chain of Cathepsin L (P07711 114-333): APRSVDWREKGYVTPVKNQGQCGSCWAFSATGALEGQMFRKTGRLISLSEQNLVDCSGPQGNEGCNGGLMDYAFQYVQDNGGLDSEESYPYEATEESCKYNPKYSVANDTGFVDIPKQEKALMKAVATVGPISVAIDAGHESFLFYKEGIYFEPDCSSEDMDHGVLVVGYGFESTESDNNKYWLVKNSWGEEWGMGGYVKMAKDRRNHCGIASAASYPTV

## Cc1cccc2nc(CSC(=S)NCc3cccnc3)cn12 [Compound 1, (5-methylimidazo[1,2-a]pyridin-2-yl)methyl (pyridin-3-ylmethyl)carbamodithioate]
SARS-CoV-2 3CLpro [1]
  Assay without GSH pIC50 ± SD: 7.67 ± 0.30
  SARS-CoV-2 (Beta-CoV) 3CLpro pIC50 ± SD: 0.021 (7.67 ± 0.30)
SARS-CoV-2 3CLpro [1]; SARS-CoV-2 3CLpro IC50
  IC50: 1750 nM
Human Calpain 1
  IC50: > 300000 nM
Human Calpain 1; GSH 2 mM, pre-incubation of 30 min
  Human Calpain 1 pIC50 ± SD: > 3.52
Cathepsin L
  selectivity over two human cysteine proteases: more than 80 fold
SARS-CoV-2 3CLpro [2]
  Thermal shift ΔTm of SARS-CoV-2 3CLpro with GSH: 11.33 °C
SARS-CoV-2 3CLpro [3]
  enzyme inhibition after jump dilution: around 80%
  enzyme inhibition after jump dilution (words): no more inhibition
  time within which inhibition is reversible: ≤ 2 h
[4]; 100 μM in enzymatic assay buffer, 2 mM GSH, 1.5 h incubation
  disappearance of the compound: less than 10%
[4]; after 90 min, GSH 2 mM
  reaction conversion with GSH: < 10%

## Cc1cccc2nc(CNC(=S)NCc3cccnc3)cn12 [Compound 1A, 1-((5-methylimidazo[1,2-a]pyridin-2-yl)methyl)-3-(pyridin-3-ylmethyl)thiourea]
SARS-CoV-2 3CLpro [1]
  Assay without GSH pIC50 ± SD: 4.46 ± 0.19
  inhibitory effect on SARS-CoV-2 3CLpro: inactive

## CCSC(=S)NCc1cccnc1 [Compound 1B, Ethyl (pyridin-3-ylmethyl)carbamodithioate]
SARS-CoV-2 3CLpro [1]
  fold lower potency compared to compound 1: 8 fold

## S=C(NCc1cccnc1)OCc1ccccc1 [Compound 1D, O-benzyl(pyridin-3-ylmethyl)carbamothioate]
SARS-CoV-2 3CLpro [1]
  inhibitory effect on SARS-CoV-2 3CLpro: inactive

## CC(=O)[O-].CC(=O)[O-].[Zn+2] [zinc acetate, reference compound]
SARS-CoV-2 3CLpro [1]
  inhibitory activity in presence of zinc chelator EDTA: completely loose its inhibitory activity
